The source of these data is US5858397A, “Liposomal formulations of mitoxantrone” (priority 1995, dated 1999).

Data set [1] has as its system tumor models and human carcinomas. The following applies: cited from earlier work.
In the next data set the test system is L1210. The data set can be described thus: L1210 anti-tumor activity (survival). It counts as in vivo, BDF1 mice. The following applies: for 60 Day Survival / Mean Survival: single; for % ILS (Increase in Life Span): vs untreated control. The method, then:
(§1) Injections were administered in a volume of 200 μL. In order to achieve this volume for the 20 mg/kg dose, the stock mixture was concentrated using Aquacide II. Survival times of the mice were then monitored over a sixty day time course. Increase in life span (ILS %) was calculated as follows: [formula] Maximum tolerated dose was determined by monitoring the weight loss of the mice over a two week period. If the mice lost greater than 30% of the original weight then the mice are terminated.
The antitumor effects of free mitoxantrone and liposomal mitoxantrone were compared using the L1210 tumor model. L1210 is a murine lymphocytic leukemia. […] This provides identical tumor models for the two organs.

Another data set can be described thus: in vivo. The settings on record: mouse, iv, 10 mg/kg. The method, then: At 1, 4, 24, and 48 hours, the animals were terminated by CO2 asphyxiation and whole blood was collected via cardiac puncture. The collected blood was immediately placed into EDTA coated tubes (MICROTAINERS® from Becton Dickinson). Subsequently, plasma was prepared by centrifuging the EDTA treated whole blood at 500×g for 10 min. Lipid and drug was assayed via [^3 H]-Cholesteryl hexadecyl ether and I^14 C]-mitoxantrone tracer using a scintillation counter as described above.
An estimation of the amount of mitoxantrone retained in the liposomes that are in the circulation can be made by determining the ratio of mitoxantrone-to-lipid at the indicated time points. This estimation assumes that the level of free drug in the plasma of animals given liposomal mitoxantrone will be negligible.

Data set [2] can be described thus: Toxic dose range finding (maximum tolerated dose) in tumor-free mice. The settings on record: mouse, in vivo. The method, then:
as §1

Data set [3] can be described thus: Change in body weight during efficacy studies. Here is the method:
as §1

Broadly, the AUC is the area under the concentration-time curve, a measure of exposure.

Counter-ions that a name gives are not always drawn.

Take `COc1cccc2c1C(=O)c1c(O)c3c(c(O)c1C2=O)C[C@@](O)(C(=O)CO)C[C@@H]3O[C@H]1C[C@H](N)[C@H](O)[C@H](C)O1` [doxorubicin]: in data set [1], the toxic side effect entry was “dose limiting cardiotoxicity”.

In turn, `O=C1c2c(O)ccc(O)c2C(=O)c2c(NCCNCCO)ccc(NCCNCCO)c21` [Free Mitoxantrone, mitoxantrone hydrochloride] gave a maximum therapeutic dose in the data set on L1210 (10^4 L1210 cells i.v., treated 24 h later) of 10 mg/kg. Besides, in the data set with L1210 (drug dose 5 mg/kg), the “60 Day Survival” value was 0/5, the “Mean Survival” value is listed as 13.6 days and the “% ILS (Increase in Life Span)” value was found to be 58%. In addition, in the data set on L1210 (drug dose 10 mg/kg), the “60 Day Survival” value is listed as 0/5, the “Mean Survival” value is recorded as 16.6 days and the “% ILS (Increase in Life Span)” value is reported as 93%. Moreover, in the data set with L1210 (drug dose 20 mg/kg), the “60 Day Survival” value was 0/5, the “Mean Survival” value stood at 12.6 days and the “% ILS (Increase in Life Span)” value was found to be 47%. Moreover, the “maximum % increase in life span” value in the data set with L1210 (maximum over the doses tested) worked out at 93%. The same compound gave an AUC in “in vivo” of 11.4 ng·h/mL. In data set [1], the “short and long term toxicity compared with doxorubicin” value is “lower short and long term toxicity than doxorubicin”; the toxic side effect entry is given as “myelosuppression”. In data set [2], this compound returned an MTD of 10 mg/kg. Moreover, the “body weight loss at nadir” value in data set [3] (L1210-bearing mice, free 10 mg/kg, liposomal 20 mg/kg, day 12 to 13) is roughly 30%. The same compound came in with an MTD in data set [3] (mouse, in vivo) of 10 mg/kg.
